From US6565859B1, “Galenical formulations” (Novartis AG, priority 1993, dated 2003)

Assays:
in vivo = settings: male, Wistar, rat, whole blood, po, 10 mg
Procedure: (§1) Formulation A is an emulsion preconcentrate and formulation B is a microemulsion preconcentrate. 6 male Wistar rats of mean body weight of 300 g are used per form. One day before treatment, food is withdrawn from the rats but the rats are permitted free access to water. The rats are then anesthetized by intraperitoneal injection of 2×1 ml 20% urethane and a permanent catheter is inserted into the right vena jugularis to permit blood sampling. 500 ml/animal of the formulation is administered by gastric intubation 20 hours after the surgery. A total dose of 10 mg of drug per animal is administered. Blood samples of 0.7 ml are taken from the jugular catheter of each animal 15 minutes before drug administration and then 0.17, 0.5, 1, 1.5, 2, 3, 5 and 8 hours after drug administration. The samples are kept in heparinized tubes and are analysed by means of ELISA using microtitre plates coated with rapamycin specific antibodies. The animals are killed immediately after taking the last blood sample.

[1] = Pharmacokinetics in rats after gastric intubation, blood levels by ELISA with rapamycin specific antibodies; settings: Example 3; rapamycin given in formulations A and B, 10 mg per rat, oral
Procedure: as §1

Cmax (in vivo): 2670 to 3400 ng/mL
absorption (result in words) [1]: well absorbed
Compound: CO[C@H]1C[C@@H]2CC[C@@H](C)[C@@](O)(O2)C(=O)C(=O)N2CCCC[C@H]2C(=O)O[C@H]([C@H](C)C[C@@H]2CC[C@@H](O)[C@H](OC)C2)CC(=O)[C@H](C)/C=C(\C)[C@@H](O)[C@@H](OC)C(=O)[C@H](C)C[C@H](C)/C=C/C=C/C=C/1C [rapamycin, Rapamycin]
